Results: PubChem BioAssay AID623934 (Southern Research Specialized Biocontainment Screening …, 2012)
pEC50: −log10 of the molar value. Activity calls are given as the source filed them. The rule behind the calls is not given here.

Test system: West Nile virus infected cells, antiviral cytopathic protection
Experiment: West Nile virus antiviral cytopathic protection, dose response, cell-based, EC_3 (AID 623934)
Details: not given

Row | pEC50 | SMILES
1 | 4.89 | O=C(CSc1nc2ccccc2c(=O)n1-c1c(Cl)cccc1Cl)Nc1ccc2c(c1)CCC2
2 | 5.08 | Cc1ccc(-n2c(SCC(=O)Nc3ccc4c(c3)CCC4)nc3ccccc3c2=O)cc1Br
3 | 4.94 | O=C(CSc1nc2ccccc2c(=O)n1-c1cc(F)cc(F)c1)Nc1ccc2c(c1)CCC2
4 | 4.81 | O=C(CSc1nc2cccc(F)c2c(=O)n1-c1ccc(Cl)c(Cl)c1)Nc1ccc2c(c1)CCC2
5 | 5.18 | Cc1cc(-n2c(SCC(=O)Nc3ccc4c(c3)CCC4)nc3ccccc3c2=O)ccc1F
6 | 4.76 | O=C(CSc1nc2c(F)cccc2c(=O)n1-c1ccccc1)Nc1ccc2c(c1)CCC2
7 | 4.94 | O=C(CSc1nc2c(F)cccc2c(=O)n1-c1cc(Cl)cc(Cl)c1)Nc1ccc2c(c1)CCC2
8 | 5.37 | Cc1cc(-n2c(SCC(=O)Nc3ccc4c(c3)CCC4)nc3ccccc3c2=O)ccc1Cl
9 | 4.61 | O=C(CSc1nc2ccccc2c(=O)n1-c1cc(Cl)c(F)cn1)Nc1ccc2c(c1)CCC2
10 | 5.03 | O=C(CSc1nc2c(F)cccc2c(=O)n1-c1ccc(Cl)c(Cl)c1)Nc1ccc2c(c1)CCC2
11 | 4.57 | O=C(CSc1nc2ccccc2c(=O)n1-c1ccccc1)Nc1ccc2c(c1)CCC2
12 | 4.86 | O=C(CSc1nc2ccccc2c(=O)n1-c1ccc(Cl)c(Br)c1)Nc1ccc2c(c1)CCC2
13 | 4.73 | O=C(CSc1nc2ccccc2c(=O)n1-c1cc(F)c(F)cn1)Nc1ccc2c(c1)CCC2

Test system: not listed separately
Experiment: as above
Details: West Nile virus infected cells, antiviral cytopathic protection; at 50 µM (top of the series)

Row | SMILES | inhibition
14 | Cc1cc(-n2c(SCC(=O)c3nc(-c4ccccc4)cs3)nc3ccccc3c2=O)ccc1Cl | 3.94% (inactive)

Same assay, conditions: West Nile virus infected cells, antiviral cytopathic protection; at 100 µM (top of the series)

Row | SMILES | inhibition
15 | O=C(CSc1nc2ccccc2c(=O)n1-c1ccc(Cl)c(F)c1)Nc1ccc2c(c1)CCC2 | 7.41% (inactive)
16 | O=C(CSc1nc2ccccc2c(=O)n1-c1ccc(Cl)c(Cl)c1)Nc1ccc2c(c1)CCC2 | 24.8% (inactive)
17 | O=C(CSc1nc2ccccc2c(=O)n1-c1ccc(Cl)c(Br)c1)Nc1nc(-c2ccccc2)cs1 | 4.48% (inactive)
18 | O=C(CSc1nc2ccccc2c(=O)n1-c1cc(F)cc(F)c1)Nc1nc(-c2ccccc2)cs1 | 3.67% (inactive)
19 | O=C(CSc1nc2c(Cl)cccc2c(=O)n1-c1cc(Cl)cc(Cl)c1)Nc1nc(-c2ccccc2)cs1 | 5.19% (inactive)
20 | Cc1cc(-n2c(SCC(=O)c3nc(-c4ccccc4)cs3)nc3ccccc3c2=O)ccc1F | 3.75% (inactive)
21 | O=C(CSc1nc2c(Cl)cccc2c(=O)n1-c1cc(Cl)cc(Cl)c1)Nc1ccc2c(c1)CCC2 | 5.62% (inactive)
22 | O=C(CSc1nc2ccccc2c(=O)n1-c1ccccn1)Nc1ccc2c(c1)CCC2 | 2.47% (inactive)
23 | O=C(CSc1nc2cccc(F)c2c(=O)n1-c1ccc(Cl)c(Cl)c1)Nc1ccc2c(c1)CCC2 | 3.14% (inactive)
24 | O=C(CSc1nc2c(F)cccc2c(=O)n1-c1ccc(Cl)c(Cl)c1)Nc1nc(-c2ccccc2)cs1 | 5.8% (inactive)
25 | O=C(CSc1nc2c(F)cccc2c(=O)n1-c1ccccc1)Nc1nc(-c2ccccc2)cs1 | 3.49% (inactive)
26 | O=C(CSc1nc2ccccc2c(=O)n1-c1ccccn1)Nc1nc(-c2ccccc2)cs1 | 3.87% (inactive)
27 | N#Cc1ccc(-n2c(SCC(=O)Nc3ccc4c(c3)CCC4)nc3ccccc3c2=O)cc1F | 2.03% (inactive)
28 | Cc1cc(-n2c(SCC(=O)Nc3nc(-c4ccccc4)cs3)nc3ccccc3c2=O)ccc1F | 4.72% (inactive)
29 | Cc1cc(-n2c(SCC(=O)Nc3nc(-c4ccccc4)cs3)nc3ccccc3c2=O)ccc1Cl | 5.12% (inactive)
30 | O=C(CSc1nc2ccccc2c(=O)n1-c1ccc(Cl)c(Cl)c1)Nc1nc(-c2ccccc2)cs1 | 4.05% (inactive)
31 | N#Cc1ccc(-n2c(SCC(=O)Nc3nc(-c4ccccc4)cs3)nc3ccccc3c2=O)cc1F | 5.78% (inactive)
32 | N#Cc1ccc(-n2c(SCC(=O)Nc3ccc4c(c3)CCC4)nc3ccccc3c2=O)cc1 | 8.15% (inactive)
33 | O=C(CSc1nc2cccc(F)c2c(=O)n1-c1cc(Br)c(F)cn1)Nc1ccc2c(c1)CCC2 | 3.79% (inactive)
34 | O=C(CSc1nc2ccccc2c(=O)n1-c1c(Cl)cccc1Cl)Nc1nc(-c2ccccc2)cs1 | 1.54% (inactive)
35 | O=C(CSc1nc2cccc(F)c2c(=O)n1-c1ccc(Cl)c(Cl)c1)Nc1nc(-c2ccccc2)cs1 | 3.12% (inactive)
36 | N#Cc1ccc(-n2c(SCC(=O)Nc3nc(-c4ccccc4)cs3)nc3ccccc3c2=O)cc1 | 6.44% (inactive)
37 | O=C(CSc1nc2ccccc2c(=O)n1-c1cc(F)cc(F)c1)c1nc(-c2ccccc2)cs1 | 6.41% (inactive)
38 | O=C(CSc1nc2c(F)cccc2c(=O)n1-c1cc(Cl)cc(Cl)c1)Nc1nc(-c2ccccc2)cs1 | 3.92% (inactive)
39 | N#Cc1ccc(-n2c(SCC(=O)c3nc(-c4ccccc4)cs3)nc3ccccc3c2=O)cc1 | 3.25% (inactive)
40 | O=C(CSc1nc2ccccc2c(=O)n1-c1c(Cl)cccc1Cl)c1nc(-c2ccccc2)cs1 | 3.02% (inactive)
41 | O=C(CSc1nc2ccccc2c(=O)n1-c1ccc(Cl)c(F)c1)c1nc(-c2ccccc2)cs1 | 4.16% (inactive)
42 | Cc1ccc(-n2c(SCC(=O)c3nc(-c4ccccc4)cs3)nc3ccccc3c2=O)cc1Br | 4.12% (inactive)
